Reference: patent US9790215B2 (FLATLEY DISCOVERY LAB, LLC, priority 2013, dated 2017)

Target: T1, human ΔF508-CFTR (Homo sapiens, UniProt P13569, DEL508-508)
T1 construct: expressed in transfected cells
Test: CFTR-YFP High Throughput Assay (YFP halide flux in FRT cells)
Format: cell-based
Settings: FRT cells expressing human ΔF508-CFTR and YFP; for EC50: forskolin stimulated
Method: Assays for Detecting and Measuring the Effect of Compounds on dF508-CFTR Channels CFRT-YFP High Throughput Assay:
The following protocol is designed to selectively screen small molecule compounds for F508del CFTR corrector activities in the HTS YFP flux assay. In this protocol, the cells are incubated with testing compounds for 24 hours, washed with PBS, stimulated with forskolin and a standard potentiator, and read on a 384-well HTS plate reader, such as the Hamamatsu FDDD-6000.
(§1) YFP fluorescence intensity is acquired at high speed before and after iodide buffer is injected to the assay cells. Iodide enters the cells via active CFTR channels in the plasma membrane, and quenches the YFP fluorescence. The rate of fluorescence quenching is proportionally related to the total CFTR activities in the cell membrane. dF508-CFTR corrector accelerates YFP quenching by increasing the number of CFTR molecules in the testing cell plasma membrane.
This method was initially developed for bench top plate readers (Galietta et al., 2001), and was adapted to the HTS format (Sui et al. Assay Drug Dev. Technol. 2010).
Fisher Rat Thyroid (FRT) cells stably expressing both human AF508-CFTR and a halide-sensitive yellow fluorescent protein (YFP—H148Q/1152L 25, 22) (Galietta et al., Am. J. Physiol Cell Physiol 281(5), C1734, 2001) were cultured on plastic surface in Coon's modified Ham's F12 medium supplemented with FBS 10%, L-glutamine 2 mM, penicillin 100 U/mL, and streptomycin 100 μg/mL. G418 (0.75-1.0 mg/mL) and zeocin (3.2 ug/mL) were used for selection of FRT cells expressing ΔF508-CFTR and YFP. For primary screening, FRT cells were plated into 384-well black wall, transparent bottom microtiter plates (Costar; Corning Inc.) at a cell density of 20,000-40,000 per well. Test compound was applied to the cells at varying concentrations ranging from […] in either a 2-fold or 3-fold dilution series. Cells were incubated in a cell culture incubator at 37° C. with 5% CO2 for 24-26 h. Assay plates were washed with DPBS media (Thermo, cat# SH30028.02) to remove unbound cells and compound. Stimulation media (25 μL) containing 20 μM Forskolin & 30 μM P3 [6-(Ethyl-phenyl-sulfonyl)-4-oxo-1,4-dihydro-quinoline-3-carboxylic acid 2-methoxy-benzylamide] in Hams F-12 coon's modified media was added to the plate wells and incubated at room temperature for 60-120 min. 25 μL of HEPES-PBS-I buffer (10 mM HEPES, 1 mM MgCl2, 3 mM KCl, 1 mM CaCl2, 150 mM NaI) was then added and fluorescence quench curves (Excitation 500 nm/Emission 540 nm; exposure 136 ms) were immediately recorded on an FDSS-6000 plate reader (Hamamatsu). Quench rates were derived from least squares fitting of the data as described by Sui et al., (2010).
The following protocol is designed to selectively screen small molecule compounds for F508del CFTR potentiator activities in the HTS YFP flux assay. In this protocol, the cells are incubated at 27 C for 24 hours with homogeneously boosted dF508-CFTR expression in the cell membrane by the low temperature, washed with PBS, stimulated with forskolin, and read on a 384-well HTS plate reader, such as the Hamamatsu FDDD-6000.
as §1, with “dF508del-CFTR potentiators accelerate” for “dF508-CFTR corrector accelerates”, “increasing” for “increasing the number of”, “activities” for “molecules”
Fisher Rat Thyroid (FRT) cells stably expressing both human ΔF508-CFTR and a halide-sensitive yellow fluorescent protein (YFP-H148Q/I152L 25, 22) (Galietta et al., Am. J. Physiol Cell Physiol 281(5), C1734, 2001) were cultured on plastic surface in Coon's modified Ham's F12 medium supplemented with FBS 10%, L-glutamine 2 mM, penicillin 100 U/mL, and streptomycin 100 μg/mL. […]

T1 sequence (P13569 with tags, fused parts or gaps DEL508-508): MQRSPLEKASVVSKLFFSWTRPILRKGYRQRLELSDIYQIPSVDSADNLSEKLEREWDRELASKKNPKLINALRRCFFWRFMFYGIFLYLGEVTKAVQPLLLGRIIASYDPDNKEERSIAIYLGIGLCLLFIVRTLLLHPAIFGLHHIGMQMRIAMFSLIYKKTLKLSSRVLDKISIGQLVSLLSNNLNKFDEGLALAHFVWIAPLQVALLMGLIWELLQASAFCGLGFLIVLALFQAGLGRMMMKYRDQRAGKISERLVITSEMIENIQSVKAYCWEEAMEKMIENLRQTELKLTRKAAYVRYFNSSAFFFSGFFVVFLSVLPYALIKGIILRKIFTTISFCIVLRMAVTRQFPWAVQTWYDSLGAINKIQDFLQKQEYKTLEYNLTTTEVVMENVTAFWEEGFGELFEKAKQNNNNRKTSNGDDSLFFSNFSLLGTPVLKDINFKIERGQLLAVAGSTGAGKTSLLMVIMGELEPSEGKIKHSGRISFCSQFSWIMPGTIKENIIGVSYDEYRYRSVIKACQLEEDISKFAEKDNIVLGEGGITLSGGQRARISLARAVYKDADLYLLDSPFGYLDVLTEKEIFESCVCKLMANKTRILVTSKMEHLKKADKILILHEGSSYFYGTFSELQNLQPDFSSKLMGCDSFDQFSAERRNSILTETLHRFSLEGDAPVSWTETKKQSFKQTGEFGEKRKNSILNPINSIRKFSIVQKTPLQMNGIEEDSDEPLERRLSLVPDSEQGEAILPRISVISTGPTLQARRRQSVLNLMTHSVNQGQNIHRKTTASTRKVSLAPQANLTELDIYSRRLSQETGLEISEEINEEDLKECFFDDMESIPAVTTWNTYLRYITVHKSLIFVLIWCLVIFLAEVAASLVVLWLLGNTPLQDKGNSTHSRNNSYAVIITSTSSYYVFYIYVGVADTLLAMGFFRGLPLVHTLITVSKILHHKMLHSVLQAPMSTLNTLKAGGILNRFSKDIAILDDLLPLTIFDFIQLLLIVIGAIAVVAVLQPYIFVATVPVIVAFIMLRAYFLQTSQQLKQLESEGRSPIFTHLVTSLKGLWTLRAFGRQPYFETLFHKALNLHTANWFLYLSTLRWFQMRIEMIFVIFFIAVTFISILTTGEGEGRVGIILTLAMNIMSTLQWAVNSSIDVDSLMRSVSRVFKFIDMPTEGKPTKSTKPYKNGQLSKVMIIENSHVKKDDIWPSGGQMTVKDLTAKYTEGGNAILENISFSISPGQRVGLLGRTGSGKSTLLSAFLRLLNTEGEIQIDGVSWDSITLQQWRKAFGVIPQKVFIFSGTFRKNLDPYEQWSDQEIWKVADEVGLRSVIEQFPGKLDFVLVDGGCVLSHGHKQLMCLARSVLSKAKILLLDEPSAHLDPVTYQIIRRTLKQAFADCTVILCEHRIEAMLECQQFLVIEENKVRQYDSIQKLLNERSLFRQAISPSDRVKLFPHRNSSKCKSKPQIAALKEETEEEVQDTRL

Compound: 2-(4-(3-aminophenyl)-1-oxophthalazin-2(1H)-yl)-N-ethyl-N-(4-ethylphenyl)acetamide [Example 7]
- % Efficacy (Emax normalized to the positive control): ++ (a range of 80%-30%)
- EC50: > 20 µM

Compound: 2-(4-(3-chlorophenyl)-1-oxophthalazin-2(1H)-yl)-N-(2,2-difluorobenzo[d][1,3]dioxol-5-yl)-N-ethylacetamide [Example 21]
- % Efficacy (Emax normalized to the positive control): +++ (EMAX > 80%)
- EC50: < 10 µM

Compound: 2-(4-(3-cyanophenyl)-1-oxophthalazin-2(1H)-yl)-N-(2,2-difluorobenzo[d][1,3]dioxol-5-yl)-N-ethylacetamide [Example 20]
- % Efficacy (Emax normalized to the positive control): ++ (a range of 80%-30%)
- EC50: > 20 µM

Compound: 2-(4-(3-cyanophenyl)-1-oxophthalazin-2(1H)-yl)-N-ethyl-N-(4-ethylphenyl)acetamide [Example 16]
- % Efficacy (Emax normalized to the positive control): ++ (a range of 80%-30%)
- EC50: < 10 µM

Compound: 2-(4-(benzo[d][1,3]dioxol-4-yl)-1-oxophthalazin-2(1H)-yl)-N-ethyl-N-(4-ethylphenyl)acetamide [Example 9]
- % Efficacy (Emax normalized to the positive control): + (a range of 30%-10%)
- EC50: < 10 µM

Compound: 3-(3-(2-(ethyl(4-ethylphenyl)amino)-2-oxoethyl)-4-oxo-3,4-dihydrophthalazin-1-yl)benzamide [Example 10]
- % Efficacy (Emax normalized to the positive control): + (a range of 30%-10%)
- EC50: > 20 µM

Compound: 4-(3-(2-((2,2-difluorobenzo[d][1,3]dioxol-5-yl)(ethyl)amino)-2-oxoethyl)-4-oxo-3,4-dihydro-phthalazin-1-yl)benzamide [Example 18]
- % Efficacy (Emax normalized to the positive control): +++ (EMAX > 80%)
- EC50: 10 to 20 µM

Compound: 4-(3-(2-((2,2-difluorobenzo[d][1,3]dioxol-5-yl)(ethyl)amino)-2-oxoethyl)-4-oxo-3,4-dihydrophthalazin-1-yl)benzoic acid [Example 19]
- % Efficacy (Emax normalized to the positive control): +++ (EMAX > 80%)
- EC50: 10 to 20 µM

Compound: 4-(3-(2-(ethyl(4-ethylphenyl)amino)-2-oxoethyl)-4-oxo-3,4-dihydrophthalazin-1-yl)benzamide [Example 11]
- % Efficacy (Emax normalized to the positive control): ++ (a range of 80%-30%)
- EC50: 10 to 20 µM

Compound: 4-(3-(2-(ethyl(4-ethylphenyl)amino)-2-oxoethyl)-4-oxo-3,4-dihydrophthalazin-1-yl)benzoic acid [Example 13]
- % Efficacy (Emax normalized to the positive control): ++ (a range of 80%-30%)
- EC50: 10 to 20 µM

Compound: CCc1ccc(N(CC)C(=O)Cn2nc(-c3ccccc3)c3ccccc3c2=O)cc1 [Example 1, N-ethyl-N-(4-ethylphenyl)-2-(1-oxo-4-phenylphthalazin-2(1H)-yl)acetamide]
- EC50: 10 to 20 µM

Compound: CCc1ccc(N(CC)C(=O)Cn2nc(-c3ccc(O)cc3)c3ccccc3c2=O)cc1 [Example 2, N-ethyl-N-(4-ethylphenyl)-2-(4-(4-hydroxyphenyl)-1-oxophthalazin-2(1H)-yl)acetamide]
- EC50: < 10 µM

Compound: CCc1ccc(N(CC)C(=O)Cn2nc(-c3cccnc3)c3ccccc3c2=O)cc1 [Example 3, N-ethyl-N-(4-ethylphenyl)-2-(1-oxo-4-(pyridin-3-yl)phthalazin-2(1H)-yl)acetamide]
- EC50: > 20 µM

Compound: CCc1ccc(N(CC)C(=O)Cn2nc(-c3ccncc3)c3ccccc3c2=O)cc1 [Example 4, N-ethyl-N-(4-ethylphenyl)-2-(1-oxo-4-(pyridin-4-yl)phthalazin-2(1H)-yl)acetamide]
- EC50: > 20 µM

Compound: CCc1ccc(N(CC)C(=O)Cn2nc(-c3cccc4ncccc34)c3ccccc3c2=O)cc1 [Example 5, N-ethyl-N-(4-ethylphenyl)-2-(1-oxo-4-(quinolin-5-yl)phthalazin-2(1H)-yl)acetamide]
- EC50: 10 to 20 µM

Compound: CCc1ccc(N(CC)C(=O)Cn2nc(-c3cccc4cnccc34)c3ccccc3c2=O)cc1 [Example 6, N-ethyl-N-(4-ethylphenyl)-2-(4-(isoquinolin-5-yl)-1-oxophthalazin-2(1H)-yl)acetamide]
- EC50: < 10 µM

Compound: CCN(C(=O)Cn1nc(-c2cccnc2)c2ccccc2c1=O)c1ccc2c(c1)OC(F)(F)O2 [Example 24]
- EC50: > 20 µM

Compound: CCc1ccc(N(CC)C(=O)Cn2nc(Cc3cccnc3)c3ccccc3c2=O)cc1 [Example 25, N-ethyl-N-(4-ethylphenyl)-2-(1-oxo-4-(pyridin-3-ylmethyl)phthalazin-2(1H)-yl)acetamide]
- EC50: < 10 µM

Compound: CCN(C(=O)Cn1nc(Cc2cccnc2)c2ccccc2c1=O)c1ccc2c(c1)OC(F)(F)O2 [Example 26, N-(2,2-difluorobenzo[d][1,3]dioxol-5-yl)-N-ethyl-2-(1-oxo-4-(pyridin-3-ylmethyl)phthalazin-2(1H)-yl)acetamide]
- EC50: < 10 µM

Compound: COc1ccc(N(C)C(=O)Cn2nc(Cc3cccnc3)c3ccccc3c2=O)cc1 [Example 27, N-(4-methoxyphenyl)-N-methyl-2-(1-oxo-4-(pyridin-3-ylmethyl)phthalazin-2(1H)-yl)acetamide]
- EC50: < 10 µM

Compound: CCc1ccc(N(CC)C(=O)Cn2nc(Cc3cccnc3)c3ccc(C)cc3c2=O)cc1 [Example 28, N-ethyl-N-(4-ethylphenyl)-2-(7-methyl-1-oxo-4-(pyridin-3-ylmethyl)phthalazin-2(1H)-yl)acetamide]
- EC50: < 10 µM

Compound: CCc1ccc(N(CC)C(=O)Cn2nc(Cc3cccnc3)c3cc(C)ccc3c2=O)cc1 [Example 29, N-ethyl-N-(4-ethylphenyl)-2-(6-methyl-1-oxo-4-(pyridin-3-ylmethyl)phthalazin-2(1H)-yl)acetamide]
- EC50: < 10 µM

Compound: CCc1ccc(N(CC)C(=O)Cn2nc(Cc3cccnc3)c3cccc(C)c3c2=O)cc1 [Example 30, N-ethyl-N-(4-ethylphenyl)-2-(8-methyl-1-oxo-4-(pyridin-3-ylmethyl)phthalazin-2(1H)-yl)acetamide]
- EC50: < 10 µM

Compound: CCc1ccc(N(CC)C(=O)Cn2nc(Cc3cccnc3)c3c(C)cccc3c2=O)cc1 [Example 31, N-ethyl-N-(4-ethylphenyl)-2-(5-methyl-1-oxo-4-(pyridin-3-ylmethyl)phthalazin-2(1H)-yl)acetamide]
- EC50: < 10 µM

Compound: CCc1ccc(N(CC)C(=O)Cn2nc(Cc3cccnc3)c3cc(OC)c(OC)cc3c2=O)cc1 [Example 32, 2-(6,7-dimethoxy-1-oxo-4-(pyridin-3-ylmethyl)phthalazin-2(1H)-yl)-N-ethyl-N-(4-ethylphenyl)acetamide]
- EC50: < 10 µM

Compound: CCc1ccc(N(CC)C(=O)Cn2nc(Cc3cccnc3)c3ccc(C(C)(C)C)cc3c2=O)cc1 [Example 33, 2-(7-(tert-butyl)-1-oxo-4-(pyridin-3-ylmethyl)phthalazin-2(1H)-yl)-N-ethyl-N-(4-ethylphenyl)acetamide]
- EC50: < 10 µM

Compound: CCc1ccc(N(CC)C(=O)Cn2nc(Cc3cccnc3)c3cc(C(C)(C)C)ccc3c2=O)cc1 [Example 34, 2-(6-(tert-butyl)-1-oxo-4-(pyridin-3-ylmethyl)phthalazin-2(1H)-yl)-N-ethyl-N-(4-ethylphenyl)acetamide]
- EC50: < 10 µM

Compound: CCc1ccc(N(CC)C(=O)Cn2nc(Cc3cccnc3)c3ccc(OC)cc3c2=O)cc1 [Example 35, N-ethyl-N-(4-ethylphenyl)-2-(7-methoxy-1-oxo-4-(pyridin-3-ylmethyl)phthalazin-2(1H)-yl)acetamide]
- EC50: < 10 µM
